In patent US8304238B2, “Cell culture medium and immobilized preparation of cell adhesion protein or peptide” (Nat'l Institute for Environmental Studies, priority 2003, dated 2012):

Tests used:
[1] = system: alveolar type II epithelial cells (T2 cells); experiment: Adhesion of T2 cells to pseudomatrices dissolved in 50% ethanol and air-dried/immobilized, and competitive inhibition by free peptide; assay type: cell-based; conditions: for Adhesion of T2 cells to pseudomatrix compared with coated FN: 50% ethanol, air-dried, 0.1-1.0 μg/well, 24 hours serum-free
Experimental: 50 μl of 2-20 μg/ml MAST-GRGDSP (Gly-Arg-Gly-Asp-Ser-Pro) (SEQ ID NO: 22) and MMAC-GRGDSP (SEQ ID NO: 22) dissolved in 50% ethanol were poured into wells, and air-dried/immobilized. Next, the wells to which MAST-GRGDSP (SEQ ID NO: 22) and MMAC-GRGDSP (SEQ ID NO: 22) (0.1-1.0 μg/well) were coated were rinsed with the serum-free DMEM medium. T2 cells suspended in the medium at the concentration of 6×10^4 cells/100 μl were seeded, and cultured in a CO2 incubator at 37° C. for 24 hours. Then, the cells were fixed with methanol, stained, and measured its absorbance according to the method in Example 7. A culture wherein FN was coated as a standard material was conducted simultaneously. The cell adhesion on FN was shown as a standard (100%).
In the same manner as in Example 18, MAST-GRGDSP (SEQ ID NO: 22) was dissolved in 50% ethanol, air-dried/immobilized on wells, and T2 cells were seeded/cultured thereon. Separately, just before the cells were seeded, 0.25-4.0 mg/ml of free GRGDSP (SEQ ID NO: 22) peptide was added to the cell suspension, and the culture and the subsequent measurement of absorbance were conducted in the same manner as described above. […] Further, when the applied amount of MAST-GRGDSP (SEQ ID NO: 22) was decreased, the immobilized amount of GRGDSP (SEQ ID NO: 22) decreased, and the competitive inhibition by free GRGDSP (SEQ ID NO: 22) peptide worked more effectively.
In the same manner as in Example 18, MMAC-GRGDSP (SEQ ID NO: 22) was dissolved in 50% ethanol, air-dried/immobilized on wells, and T2 cells were seeded/cultured thereon. Separately, just before the cells were seeded, 0.25-4.0 mg/ml of free GRGDSP (SEQ ID NO: 22) peptide was added to the cell suspension, and the culture and the subsequent measurement of absorbance were conducted in the same manner as described above.
In the same manner as in Example 18, MBAC/MAST-AG73 and -FIB-1 were dissolved in 50% ethanol, air-dried/immobilized on wells, and T2 cells were seeded/cultured thereon. Separately, just before the cells were seeded, 0.25 mg/ml of free AG73 or FIB-1 peptide was added to the cell suspension, and the culture and the subsequent measurement of absorbance were conducted in the same manner as described above.

[2] = system: alveolar type II epithelial cells (T2 cells); experiment: Inhibition of T2 cell adhesion to immobilized pseudomatrix by treatment with polyclonal antibodies for the peptides; assay type: cell-based; conditions: for Inhibition of cell adhesion by anti-FIB-1 antibody: immobilized at 1 μg/ml
Experimental: (§1) Each pseudomatrix prepared in Example 13 to which cell adhesion peptide was bound (MBAC-peptide) was diluted in DMEM medium to the concentration of 1-10 μg/ml, poured into a 96-well by 100 μl each, and left still overnight in a CO2 incubator to be adsorbed and immobilized on the wells. Non-adsorbed MBAC-peptides were removed by rinsing well with DMEM medium. Next, 100 μl of antibodies diluted with serum-free DMEM to the concentration of 4-10 μg/ml was poured into a well, incubated for 2-4 hours to let the antibodies bind to the peptides. Normal IgG was used for control groups. Antibodies were removed after the treatment, T2 cells suspended at the concentration of 6×10^5 cells/ml were seeded by 100 μl each. After 1-day serum-free culture, T2 cells were fixed with 100 μl of methanol for 5 minutes, and stained with 50 μl of 0.4% crystal violet for 30 minutes. Excessive staining was washed with water, and the number of adhering cells was counted based on the absorbance of cytoplasm (A595).

[3] = system: alveolar type II epithelial cells (T2 cells); experiment: Inhibition of T2 cell adhesion by anti-FIB-1 antibody after MBAC/MAST-FIB-1 in 50% ethanol is air-dried/immobilized; assay type: cell-based; conditions: 4 μg/ml antibody 4 hours; FIB-1 concentration 0.1-0.25 μg/well
Experimental: In the same manner as in Example 21, MBAC/MAST-FIB-1 was diluted with 50% ethanol, poured into wells, and air-dried/immobilized. Before T2 cells were seeded, 100 μl of 4 μg/ml anti-FIB-1 polyclonal antibody was poured into the well, and incubated for 4 hours to allow the antibody to bind to the immobilized FIB-1 peptide. Controls were treated with normal IgG. T2 cells were cultured, fixed, and stained in the same manner as in Example 21.

[4] = system: alveolar type II epithelial cells (T2 cells); experiment: Adhesion of T2 cells to pseudomatrix adsorbed/immobilized from DMEM and competitive inhibition by free peptides; assay type: cell-based; conditions: for Competitive inhibition of cell adhesion to pseudomatrix by free cell adhesion peptide: pseudomatrix 1-10 μg/ml in DMEM
Experimental: 200 mg each of hydrophobic binding-adsorptive polymer, MBAC, MAST or MMAC were dispersed into water, and 1 N NaOH solution was added little by little to dissolve them completely. 50 mg of WSC (1-ethyl-3-(3-dimethylamino propyl)carbodiimide, hydrochloride) was added to the resulting solution, and the reaction was conducted for 2 hours. Subsequently, 20 mg of peptide was added, and the reaction was continued with stirring for 2 hours at room temperature. After the reaction was finished, the reactant was subjected to dialysis with water to remove alkaline and low molecules, and then freeze-dried to prepare a pseudomatrix of interest.
as §1, with “μg/ml, and the resultant solution was” for “μg/ml,”, “Next,” for “Next, 100 μl of antibodies diluted with serum-free DMEM to the concentration of 4-10 μg/ml was poured into a well, incubated for 2-4 hours to let the antibodies bind to the peptides. Normal IgG was used for control groups. Antibodies were removed after the treatment,”, “seeded in the serum-free DMEM” for “seeded”
In the same manner as in Example 14, each pseudomatrix prepared in Example 13 to which cell adhesion peptide was bound (MAST-peptide) was adsorbed and immobilized on a 96-well, and T2 cells were seeded and cultured thereon.

[5] = target: integrin on T2 cells (integrin α5β1); experiment: reference of the ratio; T2 cell adhesion to immobilized peptides (FIGS. 8 and 9)
[6] = target: adhesion receptor present on the cell surface of T2 cells (not named); experiment: T2 cell adhesion to FIB-1 and the peptide co-immobilized on MMAC-coated wells, inhibition by free FIB-1 (FIG. 9)
[7] = target: adhesion receptor present on the cell surface of T2 cells (not named); experiment: T2 cell adhesion to immobilized peptides, competitive inhibition by free peptides (FIGS. 8 and 9)
[8] = target: syndecan present on the cell surface of T2 cells (alveolar type II epithelial cells); experiment: T2 cell adhesion to FIB-1 and AG73 co-immobilized on MMAC-coated wells, inhibition by free FIB-1 (FIG. 9)
[9] = target: syndecan present on the cell surface of T2 cells (alveolar type II epithelial cells); experiment: T2 cell adhesion to immobilized peptides, competitive inhibition by free peptides (FIGS. 8 and 9)

Molecule: MAST-FIB-1: pseudomatrix: MAST polymer reacted with FIB-1 peptide (YAVTGRGDSPAS)
- Competitive inhibition of cell adhesion by free peptide ([1]; 50% ethanol air-dried pseudomatrix, 0.25 mg/ml free AG73 or FIB-1): worked more effectively in accordance with the decrease in the amount of immobilized FIB-1
- Adhesion of T2 cells to pseudomatrix compared with coated FN [1]: similarly to the case where FN was coated
- Inhibition of cell adhesion by anti-FIB-1 antibody [2]: equally inhibited
- Degree of inhibition of cell adhesion by the antibody ([2]; immobilized at 2.5-10 μg/ml): low
- Inhibition of cell adhesion by anti-FIB-1 polyclonal antibody [3]: specifically inhibited by the antibody
- Cell adhesion ability of immobilized pseudomatrix compared with directly coated FN ([4]; 1-10 μg/ml in DMEM, 1-day serum-free culture, excluding 1 μg/ml of MBAC-AG73): the same level of cell adhesion ability as in the case where FN was directly coated
- Competitive inhibition of cell adhesion to pseudomatrix by free cell adhesion peptide [4]: competitively inhibited by the free cell adhesion peptide, the degree is lower than the case of MBAC-peptide

Molecule: MBAC-FIB-1: pseudomatrix: MBAC polymer reacted with FIB-1 peptide (YAVTGRGDSPAS)
- Adhesion of T2 cells to pseudomatrix compared with coated FN [1]: similarly to the case where FN was coated
- Cell adhesion ability of immobilized pseudomatrix compared with coated FN ([2]; MBAC-peptide 1-10 μg/ml in DMEM): the same level of cell adhesion ability as in the case where FN was coated
- Inhibition of cell adhesion by treatment with antibodies for the peptides ([2]; antibodies 4-10 μg/ml, 2-4 hours): specifically inhibited
- Inhibition of cell adhesion by anti-FIB-1 antibody [2]: equally inhibited
- Inhibition of cell adhesion by anti-FIB-1 polyclonal antibody [3]: specifically inhibited by the antibody
- Competitive inhibition of cell adhesion to pseudomatrix by free cell adhesion peptide [4]: competitively inhibited

Molecule: YAVTGRGDSPAS [FIB-1 (Tyr-Ala-Val-Thr-Gly-Arg-Gly-Asp-Ser-Pro-Ala-Ser)]
- Binding strength to T2 cells, Ratio to FIB-1 (fold (ratio to FIB-1)) [5]: 1

Molecule: GPLPSYLQFVGI [A5G71 (Gly-Pro-Leu-Pro-Ser-Tyr-Leu-Gln-Phe-Val-Gly-Ile)]
- mixing ratio at the transitional midpoint (peptide to FIB-1) [6]: 1
- Binding strength to T2 cells, Ratio to FIB-1 (fold (ratio to FIB-1)) [7]: < 1

Molecule: RKRLQVQLSIRT [AG73 (Arg-Lys-Arg-Leu-Gln-Val-Gln-Leu-Ser-Ile-Arg-Thr)]
- mixing ratio at the transitional midpoint (peptide to FIB-1) [8]: 0.01
- Binding strength to T2 cells, Ratio to FIB-1 (fold (ratio to FIB-1)) [9]: 100
